In paper PMC12276035, “Novel Para‐Phenylenediamine‐Based Derivatives as Receptor Tyrosine Kinase‐like Orphan Receptor 1 (ROR1) Inhibitors: An In Vitro Preliminary Characterization” (Chemmedchem, 2025):

Columns and labels:
SH‐SY5Y cells = test: MTT cell viability assay, SH‐SY5Y; format: cell-based; conditions: Homo sapiens, cytotoxicity, treated for 72 h, read-out: EC50 ± SD SH‐SY5Y
Procedure: Cytotoxicity studies, assessing the activity of the synthetized compounds, were performed only on the molecules showing the best binding profile in the SPR assay. MTT test was performed on two cell lines known for overexpressing ROR1, particularly MTT assays were conducted on JeKo‐1 (human mantle cell lymphoma) and SH‐SY5Y (neuroblastoma), exposing them to different concentrations of compounds for 72 h (Table 2 ). […] This increased effectiveness is likely due to the high expression of the target protein in leukemia and other hematologic malignancies. […] A key structural difference in 18 and 19 compared to active compounds is the absence of the trifluoromethyl group on the aromatic ring. Indeed, the removal of the trifluoromethyl group (18) or the incorporation of an electron‐donating substituent (19) alters the interaction with the ATP‐binding pocket.
The neuroblastoma SH‐SY5Y cells, a human neuroblastoma cell line of neural crest origin, were obtained from ATCC and were grown in DMEM supplemented with 10% v/v fetal bovine serum, 2 mM L‐glutamine, 100 U mL^−1 penicillin, and 0.1 mg mL^−1 streptomycin.
Cell viability was established by measuring mitochondrial metabolic activity with MTT. In brief, SH‐SY5Y (20 × 10^3 cells/well) and JeKo‐1 (10 × 10^3 cells/well) were plated into 96‐well plates for 24 h, then the compounds (1.56–50 μM) were added. […], cells were replaced with a fresh medium containing 0.5 mg mL^−1 MTT.^[ [45] ^] Cells were incubated for 1–3 h at 37 °C, then the medium was discarded, and formazan blue crystals in the cells dissolved with 100 μL per well of a solution containing isopropanol/HCl 0.1 M. The absorbance was measured at 570 nm using a microplate reader (Multiskan Go, Thermo Scientific, Waltham, MA, USA). Cell viability was expressed as a percentage relative to the untreated cells cultured in medium with 0.1% DMSO and set to 100%, whereas 10% DMSO was used as positive control and set to 0% of viability. The EC50 values were calculated using GraphPad Prism 8.0 software by nonlinear regression of dose‐response inhibition.

Plasma stability assay = format: in vitro ADME; conditions: mouse plasma, 120 min, 37 °C
Procedure: In addition to hepatic metabolism, drugs are also prone to degradation and modification by plasma enzymes, including hydrolases and esterases. Compounds with low plasma stability often show rapid clearance and a short half‐life. […] In this study, we assessed the metabolic stability of compound 17 by incubating it in mouse plasma for 120 min.
The plasma stability of compound 17 was evaluated. Briefly, mouse plasma is equilibrated to 37 °C and biotransformation is initiated by addition of compound solution and mixing. At each specified time point (0, 60, and 120 min), the test compound was extracted using ice‐cold methanol to halt degradation, with the IS added during the quenching phase. The concentration of the test compound was then quantified using LC‐MS. The percentage of the test compound remaining at each time point, relative to the 0 min reference, was recorded. Procaine (low stability) and procainamide (high stability) served as controls. All experiments were conducted in triplicate.

[1] = Plasma protein binding, rapid equilibrium dialysis; format: in vitro ADME; conditions: 37 °C, read-out: drug bound to plasma proteins
Text: Plasma protein binding plays a crucial role in drug distribution and biological activity. After absorption into systemic circulation, drug molecules may bind to plasma proteins, and the bound drug cannot cross biological membranes, rendering it unavailable to exert a pharmacological effect. Only the free drug, unbound to plasma proteins, is pharmacologically active.
A Rapid Equilibrium Dialysis Plate (Pierce™ RED, Thermo Scientific) was used to determine the percentage of compound binding to plasma proteins. Potassium phosphate buffer was added to each white well, and plasma/compound (1 μM) mixture was added to the red wells. The plate was sealed and incubated at 37 °C on an orbital shaker at 300 rpm for 4 h. Afterward, 50 μL of post‐dialysis samples from the buffer and plasma chambers were transferred into separate microcentrifuge tubes. An equal volume of plasma was added to the buffer sample, while the plasma sample received an equivalent volume of buffer. Precooled IS was added to the assay plate to quench the reaction. Compounds were quantified by LC‐MS/MS. The percentage of free and bound compound was calculated using the following equations: % free = (concentration in buffer chamber/concentration in plasma chamber) × 100, and % bound = 100 − % free.^[ [48] ^] All experiments were performed in duplicate. Propranolol was used as positive control.

ROR1 = target: T1, ROR1 (Homo sapiens, UniProt Q01973); test: Cellular Thermal Shift Assay (CETSA); format: cell-based; conditions: JeKo‐1, 40 μM, 2 h, 45–58 °C
T1 construct: endogenous in cells; host or cells: JeKo-1
Procedure: To further ascertain the binding between 17 and ROR1, we performed CETSA, a cell‐based test allowing us to carry out both qualitative and quantitative analyses of the direct interaction of a drug candidate to a target protein inside a cell.^[ [34] ^] CETSA assay was performed on JeKo‐1 cell line incubated with 17 for 2 h. After the treatment, ROR1 levels were evaluated by western blotting analysis. […] These findings provide strong evidence that the inhibitor effectively engages with ROR1 in cells, further supporting its mechanism of action (Figure 5 ). Ponatinib was used as a positive control (Figure S40, Supporting Information).
Figure 5 CETSA identifies ROR1 protein in the binding with 17 in JeKo‐1 cells. A) CETSA western blots and B) corresponding quantitative analysis of band intensity. […] Densitometry‐based quantification of western blotting signals was calculated by first normalizing to α‐tubulin levels in individual samples. […]
The CETSA is particularly suitable for identifying the interaction between ligands and their protein targets. […] The change in the thermal stability of the target protein is measured by the amount of residual soluble protein at different temperatures, comparing treated samples with control samples.^[ [32] ^] […] The amount of the soluble target protein was assessed by western blotting analysis.

T1 sequence (Q01973 30-937): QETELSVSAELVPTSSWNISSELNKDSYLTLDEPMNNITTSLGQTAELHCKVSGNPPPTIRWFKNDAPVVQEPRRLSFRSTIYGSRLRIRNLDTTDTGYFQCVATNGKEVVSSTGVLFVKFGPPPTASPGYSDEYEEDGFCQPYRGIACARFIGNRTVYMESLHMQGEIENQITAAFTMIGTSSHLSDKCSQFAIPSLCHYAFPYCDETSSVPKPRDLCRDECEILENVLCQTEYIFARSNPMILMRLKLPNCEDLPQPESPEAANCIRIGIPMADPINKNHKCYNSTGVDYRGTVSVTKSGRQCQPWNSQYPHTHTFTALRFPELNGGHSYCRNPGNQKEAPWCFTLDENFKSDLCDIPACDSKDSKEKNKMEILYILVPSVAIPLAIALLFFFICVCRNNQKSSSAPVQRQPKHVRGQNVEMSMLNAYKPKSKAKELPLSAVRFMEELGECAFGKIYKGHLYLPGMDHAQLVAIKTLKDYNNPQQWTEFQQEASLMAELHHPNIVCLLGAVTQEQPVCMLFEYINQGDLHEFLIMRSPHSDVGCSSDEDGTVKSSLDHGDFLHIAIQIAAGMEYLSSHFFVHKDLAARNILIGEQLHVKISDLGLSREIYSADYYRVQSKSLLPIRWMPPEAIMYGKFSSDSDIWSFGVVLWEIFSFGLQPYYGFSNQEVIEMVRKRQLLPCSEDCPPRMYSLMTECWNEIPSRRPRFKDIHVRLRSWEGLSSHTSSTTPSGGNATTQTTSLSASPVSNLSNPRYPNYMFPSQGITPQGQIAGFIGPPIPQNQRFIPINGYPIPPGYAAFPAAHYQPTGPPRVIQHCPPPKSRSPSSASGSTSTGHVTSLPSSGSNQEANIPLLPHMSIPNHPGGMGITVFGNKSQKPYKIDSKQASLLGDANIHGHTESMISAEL

compound remaining intact (Plasma stability assay): over 85%
fraction unbound at 4 h, 1 μM [1]: 0.01
ROR1 thermal stabilization (ROR1): strong stabilization
Compound: O=C(NCc1ccc(-c2ccccc2)cc1)Nc1ccc(NCC2CCNCC2)cc1C(F)(F)F [Compound 17]
EC50 (SH‐SY5Y cells): 17.7 ± 2.73 µM
